Reference: patent publication US20090155187A1, “DRUG FOR INHIBITING VASCULAR INTIMAL HYPERPLASIA” (Nissan Chemical Industries Ltd., priority 2004, published 2009)

System: rat femoral arteries (intimal hyperplasia)
Assay: Intimal hyperplasia in rat femoral arteries formed by photosensitization (rose bengal and green light)
Assay type: in vivo, Wistar rat
Settings: left femoral artery, vs solvent group
Protocol: Under intraperitoneal anesthesia with pentobarbital (50 mg/mL/kg), a catheter was placed in the left cervical vein of a Wistar rat. The left femoral artery was detached, and the probe of an ultrasonic pulse Doppler blood flowmeter was placed on the artery. The artery proximal to the site of placement of the probe was irradiated with green light (540 nm, 800,000 1×) at a distance of 5 mm from the artery. A steady blood flow was confirmed after 10 minutes of start of the irradiation, and 15 mg/mL/kg of rose bengal was injected into the left cervical vein to damage the vascular endothelium. Then, the incision was sutured. Rats were divided in order as a solvent group (9 rats), a group (10 rats) to which 10 mg/kg of Compound A was administered, and a group (10 rats) to which 300 mg/kg of Cilostazol was administered. The drugs were suspended in 0.5% methylcellulose solution, adjusted so as to be administered at a dose of 5 mL/kg, and orally administered on the day of operation after confirmation of postoperative arousal, and then orally administered once a day in the morning for the subsequent three weeks. Three weeks after the operation, the left femoral artery was exposed under anesthesia. […] The medial areas and the intimal area in transverse sections of the femoral arteries were measured as indices of intimal hyperplasia with a computer image analyzer, and the ratio of the […] (the I/M ratio) was calculated. The results are expressed as average±standard deviation. The intimal areas and the I/M ratios were analyzed for distribution uniformity in each group by Bartlett's test. If the distribution was uniform, one-way analysis of variance was done, and the averages for the solvent group and the respective drug-treated groups were analyzed by Dunnett's test to determine if there was significant difference between them. When the distribution was not uniform, the Kruskal-Wallis rank test was done, and if there was significant difference between the solvent group and a drug-treated group, the average ranks for the two groups were analyzed by Dunnett's test. […]

[1] = 10 mg/kg orally once a day for three weeks, Dunnett's test p<0.05

SMILES | intimal hyperplasia inhibitory action (intimal area and I/M ratio) (300 mg/kg orally once a day for three weeks) | I/M ratio [1] | area of the tunica intima (intimal area) [1]
O=C1CCc2cc(OCCCCc3nnnn3C3CCCCC3)ccc2N1 [Cilostazol, reference compound] | showed no action | – | –
Cl.O=c1[nH]nc(OCCCc2ccc(Cl)cc2)c(NCc2cccnc2)c1Br [Compound A, 4-bromo-6-[3-(4-chlorophenyl)propoxy]-5-(3-pyridylmethylamino)-3(2H)-pyridazinone hydrochloride] | – | significantly reduced | significantly reduced
